In patent publication EP0643693B1, “REVERSAL OF MULTI-DRUG RESISTANCE BY TRIPHENYL-PIPERIDINE DERIVATIVES” (MERRELL PHARMACEUTICALS INC., priority 1992, dated 1993):
Where a name gives a salt, the structure may show the parent alone.

How the values were obtained:
[1] = tested on: multidrug resistant human epidermoid carcinoma (KBV1) cells; experiment: Growth inhibition of vinblastine-resistant KBV1 cells (reversal of multidrug resistance); format: cell-based
Procedure: The ability of compounds of this invention to reverse multi drug resistance can be determined using standard test procedures. The ability of the test compounds to inhibit the growth of multidrug resistant human epidermoid carcinoma (KBV1) cells in the presence of both Vinblastine and the compound was determined. […]

[2] = tested on: multidrug resistant human epidermoid carcinoma (KBV1) cells; experiment: as above; format: cell-based; remark: listed apart in the source

## COc1ccc(CCN2CCCCC2CC(c2ccccc2)c2ccccc2)cc1OC (stereo not shown) [1-(3,4-Dimethoxyphenethyl)-2-(2,2-diphenylethyl)piperidine Maleate]
[1]; KB-V1, compound 0.06 µM + VLB at 0.25 µg/ml
  inhibition at 0.06 µM: 30.4%
[1]; KB-V1, compound 0.12 µM + VLB at 0.25 µg/ml
  inhibition at 0.12 µM: 60%
[1]; KB-V1, compound 0.18 µM + VLB at 0.25 µg/ml
  inhibition at 0.18 µM: 91.6%
[1]; KB-V1, compound 0.23 µM + VLB at 0.25 µg/ml
  inhibition at 0.23 µM: 94.2%
[2]; Homo sapiens, KB-V1, compound alone, 0.06 µM
  inhibition at 0.06 µM: 1%
[2]; Homo sapiens, KB-V1, compound alone, 0.12 µM
  inhibition at 0.12 µM: 0%
[2]; Homo sapiens, KB-V1, compound alone, 0.18 µM
  inhibition at 0.18 µM: 8.1%
[2]; Homo sapiens, KB-V1, compound alone, 0.23 µM
  inhibition at 0.23 µM: 12.2%

## CC[C@]1(O)C[C@@H]2CN(CCc3c([nH]c4ccccc34)[C@@](C(=O)OC)(c3cc4c(cc3OC)N(C)[C@H]3[C@@](O)(C(=O)OC)[C@H](OC(C)=O)[C@]5(CC)C=CCN6CC[C@]43[C@@H]65)C2)C1 [Vinblastine, reference compound]
[2]; Homo sapiens, KB-V1, VLB at 0.25 µg/ml alone, read-out: growthinhibition
  inhibition at 0.25 µg/mL: 0 to 10%
[2]; Vinblastine (0.25 µg/ml) alone
  growth inhibition: 0 - 10%
